Experiment [1] relates to Human PPARγ LBD fusion protein. The experiment is described as follows: Transcription activation potential, GAL4 luciferase reporter in C3A cells. It counts as cell-based. As for the experimental part:
(§1) Cells were seeded in 24 well plates the day prior to transfection at 5×10^4−2×10^5 cells/well, depending upon cell type. Cells were transfected using Lipofectamine 2000 reagent from Invitrogen. A total of 0.8 μg DNA/well was added to 50 μL of Optimem Reduced Serum media (serum free; Gibco). Lipofectamine 2000 was added (2.5 μL/well) to another tube containing 50 μL of Optimem media. Plasmid DNA was added at a ratio of 4:3 (reporter:activator); where appropriate, salmon sperm DNA was substituted for activator expressing plasmid. […] DNA constructs containing the mouse PPARα or PPARγ LBD fused to the GAL4 DNA binding domain were also used. The two solutions were incubated at room temperature for 5 min, and then combined. The combined solution was incubated at room temperature for approximately 30 min. Cells were washed once with PBS, and 100 μL of transfection mix added to each well. Plates were incubated at 37° C. in a 5% CO2 incubator for 4.5 hr, followed by aspiration of the transfection mix, with plates refed using EMEM complete media (supplemented with 10% FBS, 1× Glutamine). 24 hr post-transfection, plates were treated with the appropriate compounds in EMEM complete media, followed by washing once with PBS and addition of 100 μL 1× reporter lysis buffer/well (Promega) 24 hr after treatment. Plates went through one freeze/thaw cycle prior to analysis. Approximately 10 μL of lysate was added to 100 μL of firefly luciferase substrate, mixed by pipetting, and analyzed on a luminometer for 10 s using the integration function (relative luciferase units/RLU) or on a Microbeta Trilux (luciferase counts per second/LCPS). Each treatment was performed in triplicate, and in multiple, separate experiments.
In general terms: A reporter such as luciferase makes a cellular process visible.

For experiment [2], the target named is T1, Mouse PPARγ LBD fusion protein (Mus musculus, UniProt P37238).
T1 sequence (P37238 238-503): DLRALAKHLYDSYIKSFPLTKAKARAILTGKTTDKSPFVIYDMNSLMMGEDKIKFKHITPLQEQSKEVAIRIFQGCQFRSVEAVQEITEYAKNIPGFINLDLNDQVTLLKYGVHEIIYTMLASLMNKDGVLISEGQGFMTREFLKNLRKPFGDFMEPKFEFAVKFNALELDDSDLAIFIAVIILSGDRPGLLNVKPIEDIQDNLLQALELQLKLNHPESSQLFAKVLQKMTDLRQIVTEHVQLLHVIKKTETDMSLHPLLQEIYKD
The experiment is described as above. It is filed as cell-based. The settings on record: Table 20b. How it is done:
as §1

For experiment [3], the target named is T2, Mouse PPARα LBD fusion protein (Mus musculus, UniProt P23204).
T2 sequence (P23204 239-466): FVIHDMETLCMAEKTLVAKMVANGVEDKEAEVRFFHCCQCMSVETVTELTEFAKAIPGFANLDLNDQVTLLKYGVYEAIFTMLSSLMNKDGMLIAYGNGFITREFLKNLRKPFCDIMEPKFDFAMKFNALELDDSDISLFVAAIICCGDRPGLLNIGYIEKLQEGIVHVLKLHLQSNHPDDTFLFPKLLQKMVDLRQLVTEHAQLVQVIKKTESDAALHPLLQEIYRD
The experiment is described as above. It is filed as cell-based. The settings on record: Table 20a. As for the experimental part:
(§2) Cells were seeded in 24 well plates the day prior to transfection at 5×10^4−2×10^5 cells/well, depending upon cell type. Cells were transfected using Lipofectamine 2000 reagent from Invitrogen. A total of 0.8 μg DNA/well was added to 50 μL of Optimem Reduced Serum media (serum free; Gibco). Lipofectamine 2000 was added (2.5 μL/well) to another tube containing 50 μL of Optimem media. Plasmid DNA was added at a ratio of 4:3 (reporter:activator); where appropriate, salmon sperm DNA was substituted for activator expressing plasmid. The reporter plasmid used was pFR-Luc, which has the firefly luciferase gene under the control of a GAL4 UAS ([…]) containing promoter. The activator expressing plasmids contain yeast GAL4 DNA binding domain (dbd) fusion of either human PPARα ligand binding domain (LBD; a.a. 167-468) or human PPARγ LBD (a.a. 176-479). DNA constructs containing the mouse PPARα or PPARγ LBD fused to the GAL4 DNA binding domain were also used. The two solutions were incubated at room temperature for 5 min, and then combined. The combined solution was incubated at room temperature for approximately 30 min. Cells were washed once with PBS, and 100 μL of transfection mix added to each well. Plates were incubated at 37° C. in a 5% CO2 incubator for 4.5 hr, followed by aspiration of the transfection mix, with plates refed using EMEM complete media (supplemented with 10% FBS, 1× Glutamine). 24 hr post-transfection, plates were treated with the appropriate compounds in EMEM complete media, followed by washing once with PBS and addition of 100 μL 1× reporter lysis buffer/well (Promega) 24 hr after treatment. Plates went through one freeze/thaw cycle prior to analysis. Approximately 10 μL of lysate was added to 100 μL of firefly luciferase substrate, mixed by pipetting, and analyzed on a luminometer for 10 s using the integration function (relative luciferase units/RLU) or on a Microbeta Trilux (luciferase counts per second/LCPS). Each treatment was performed in triplicate, and in multiple, separate experiments.

Experiment [4] addresses T3, Human PPARα LBD fusion protein (Homo sapiens, UniProt Q07869).
T3 construct: a.a; 167-468)
T3 sequence (Q07869 167-468): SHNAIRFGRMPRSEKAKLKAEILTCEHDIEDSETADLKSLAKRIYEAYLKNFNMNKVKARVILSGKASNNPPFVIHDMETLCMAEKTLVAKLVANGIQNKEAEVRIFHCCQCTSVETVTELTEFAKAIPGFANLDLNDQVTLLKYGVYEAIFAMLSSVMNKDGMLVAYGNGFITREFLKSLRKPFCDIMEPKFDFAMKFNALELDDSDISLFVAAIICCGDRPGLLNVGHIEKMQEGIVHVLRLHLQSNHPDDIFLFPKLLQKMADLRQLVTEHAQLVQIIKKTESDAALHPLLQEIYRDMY
Described as above. It is filed as cell-based. As for the experimental part: as §2

Experiment [5] concerns db/db mice. Description: Antidiabetic effects in db/db mice, Example B (2 weeks daily oral dosing). It counts as in vivo, mouse. From the text:
db/db mice have a defect in leptin signaling, leading to hyperphagia, obesity and diabetes. Moreover, unlike ob/ob mice on a C57BL/6J background, db/db mice on a C57BL/KS background undergo failure of their insulin-producing pancreatic islet cells, resulting in progression from hyperinsulinemia (associated with peripheral insulin resistance) to hypoinsulinemic diabetes.
Male obese (db/db homozygote) C57BL/Ksola mice approximately 8 weeks of age, were obtained from Jackson Labs (Bar Harbor, Me.) and randomly assigned into groups of 5-7 animals such that the body weights (50-55 g) and serum glucose levels (≧300 mg/dl in fed state) were similar between groups; male lean (db/+heterozygote) mice served as cohort controls. A minimum of 7 days was allowed for adaptation after arrival. All animals were maintained under controlled temperature (23° C.), relative humidity (50±5%) and light (7:00-19:00), and allowed free access to standard chow (Formulab Diet 5008, Quality Lab Products, Elkridge, Md.) and water.
Treatment cohorts were given daily oral doses of Vehicle (1% hydroxypropylmethylcellulose), Compounds BI, CE, BT, BV, […] or Fenofibrate for 2 weeks. At the end of the treatment period 100 μl of venous blood was withdrawn in a heparinized capillary tube from the retro-orbital sinus of db/db mice for serum chemistry analysis.

Experiment [6] deals with db/db mice. Description: Antidiabetic effects in db/db mice, Example C (17 days daily oral dosing). It is filed as in vivo, mouse. The conditions noted are these: 300 mg/kg daily oral. From the text: C57BL/Ksola (db/db) mice have a defect in leptin signaling, leading to hyperphagia, obesity and diabetes. Moreover, unlike ob/ob mice on a C57BL/6J background, db/db mice on a C57BLKS background undergo failure of their insulin-producing pancreatic islet cells, resulting in progression from hyperinsulinemia (associated with peripheral insulin resistance) to hypoinsulinemic diabetes.
Male obese (db/db homozygote) C57BL/Ksola mice approximately 8 weeks of age, were obtained from Jackson Labs (Bar Harbor, Me.) and sorted into groups of 7 animals each animals such that the body weights (40-45 g) and serum glucose levels (≧300 mg/dl in fed state) were similar between groups. A minimum of 7 days was allowed for adaptation after arrival. All animals were maintained under controlled temperature (23° C.), relative humidity (50±5%) and light (7:00-19:00), and allowed free access to standard chow (Formulab Diet 5008, Quality Lab Products, Elkridge, Md.) and water.
Treatment cohorts were given daily oral doses of vehicle (1% hydroxypropylmethylcellulose), Compounds BI, CF, CG, or phenylacetate for 17 days. At the end of the treatment period, blood samples were collected and serum glucose and triglycerides were measured.

Setting [7] is: serum, 2 weeks daily oral, dose not given in Table 17 (see Table 16).

On to `Cc1cccc(C)c1COc1cccc(CCCC(=O)O)c1` [CE, 4-(3-(2,6-Dimethylbenzyloxy)phenyl)butyric acid], for which the “transcription activation potential (luciferase) ± standard deviation” value in experiment [1] (1 μM test compound) was determined as 60 ± 11.6 LCPS; in experiment [1] (3 μM test compound) it was 73.3 ± 30.9 LCPS; in experiment [1] (10 μM test compound) it was 57.3 ± 22.6 LCPS; in experiment [1] (30 μM test compound), 28.5 ± 16.4 LCPS; in experiment [1] (100 μM test compound), 37.7 ± 23.4 LCPS; in experiment [1] (200 μM test compound), 12.3 ± 4.8 LCPS. The “transcription activation potential (luciferase) ± standard deviation” value in experiment [2] (1 μM test compound) was 14.3 ± 4.5 LCPS; in experiment [2] (3 μM test compound), 13.43 ± 8.5 LCPS; in experiment [2] (10 μM test compound), 6.03 ± 3.75 LCPS; in experiment [2] (30 μM test compound), 9.6 ± 5.46 LCPS; in experiment [2] (100 μM test compound), 11.7 ± 11.7 LCPS; in experiment [2] (200 μM test compound) it was 10.5 ± 9.2 LCPS. Besides, the “transcription activation potential (luciferase) ± standard deviation” value in experiment [3] (1 μM) was 9.47 ± 2.14 LCPS; in experiment [3] (3 μM), 9.57 ± 2.61 LCPS; in experiment [3] (10 μM), 1.17 ± 2.49 LCPS; in experiment [3] (30 μM), 7.4 ± 0.23 LCPS; in experiment [3] (100 μM) it was 6.13 ± 0.17 LCPS; in experiment [3] (200 μM), 8 ± 1.88 LCPS. Besides, the “transcription activation potential (luciferase) ± standard deviation” value in experiment [4] (1 μM) is reported as 14.7 ± 14.6 LCPS; in experiment [4] (3 μM) it was 13.2 ± 5.8 LCPS; in experiment [4] (10 μM) it was 26.2 ± 1.4 LCPS; in experiment [4] (30 μM), 10.67 ± 1.2 LCPS; in experiment [4] (100 μM), 6.33 ± 2.6 LCPS; in experiment [4] (200 μM), 12.8 ± 3.7 LCPS. For the same compound, the “Glucose (% of Control)” value in the experiment with db/db mice [5] (93 mg/kg daily oral, 2 weeks) was 54 ± 8 % of Control. In the experiment with db/db mice [5] (nonfasting, 93 mg/kg daily oral, 2 weeks), the “Glucose” value amounted to 372.0 ± 53.8 mg/dL. For the same compound, in the experiment on db/db mice [5] (setting [7]), the “Free Fatty Acids ± SEM” value worked out at 2867.4 ± 267.7 µM. Moreover, in the experiment with db/db mice [5] (setting [7]), the “Triglycerides ± SEM” value came out at 132.0 ± 15.2 mg/dL.

On to `O=C(O)Cc1ccccc1` [Phenylacetate, reference compound], for which, in the experiment on db/db mice [6], the “Glucose mg/dL (±SEM)” value is 661 ± 64 mg/dL and the “Triglycerides” value came out at 171 ± 33 mg/dL.

(Values after US7932290B2, “Method for the treatment of metabolic disorders” (Wellstat Biologics Corporation, priority 2003, dated 2011).)
